Reference: BindingDB's records for doi:10.1021/jm0301078 (Merck Frosst Centre For Therapeutic Research, 2003)

What was measured:
Experiment in all cases: Enzyme Inhibition Assay
Cathepsin K = target: T1, Cathepsin K (Homo sapiens, UniProt P43235); conditions: pH 5.5; 22 °C
T1 sequence (P43235 whole entry): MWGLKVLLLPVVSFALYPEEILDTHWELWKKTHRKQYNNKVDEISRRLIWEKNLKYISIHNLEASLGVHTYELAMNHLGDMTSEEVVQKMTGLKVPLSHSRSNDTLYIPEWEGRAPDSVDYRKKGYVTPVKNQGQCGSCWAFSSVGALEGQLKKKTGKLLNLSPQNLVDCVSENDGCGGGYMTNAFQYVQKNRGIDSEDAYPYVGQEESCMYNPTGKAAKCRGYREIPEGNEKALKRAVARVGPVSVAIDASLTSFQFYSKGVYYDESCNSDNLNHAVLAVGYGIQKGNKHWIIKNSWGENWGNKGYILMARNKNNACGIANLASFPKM
Protocol: (§1) Prior to the addition of substrate, different concentrations of the inhibitor ranging from 100 uM to 0.2 nM were preincubated for 15 min with enzyme to allow the establishment of the enzyme-inhibitor complex. The proteolytic cleavage of N-acyl aminocoumarins by cathepsins was conducted in 96-well plate format and the plate read using a Spectramax (Molecular Devices) plate reader. […] The percent inhibition of the reaction was calculated from a control reaction containing only vehicle. IC50 curves were generated by fitting percent inhibition values to a four parameter logistic model (SOFTMAX PRO, Molecular Devices).

Procathepsin L = Procathepsin L (Homo sapiens, UniProt P07711)
Chain of Procathepsin L (P07711 whole entry): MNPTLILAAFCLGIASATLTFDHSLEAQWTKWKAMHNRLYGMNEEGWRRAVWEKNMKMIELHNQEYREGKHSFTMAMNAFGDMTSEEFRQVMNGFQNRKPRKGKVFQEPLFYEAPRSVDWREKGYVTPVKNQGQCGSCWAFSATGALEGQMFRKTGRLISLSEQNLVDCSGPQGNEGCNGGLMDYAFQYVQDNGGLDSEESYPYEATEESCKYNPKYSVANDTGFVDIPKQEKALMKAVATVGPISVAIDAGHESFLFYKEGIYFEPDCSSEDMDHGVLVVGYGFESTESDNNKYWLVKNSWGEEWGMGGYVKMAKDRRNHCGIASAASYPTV
Protocol: as §1

Cathepsin S = Cathepsin S (Homo sapiens, UniProt P25774)
Chain of Cathepsin S (P25774 whole entry): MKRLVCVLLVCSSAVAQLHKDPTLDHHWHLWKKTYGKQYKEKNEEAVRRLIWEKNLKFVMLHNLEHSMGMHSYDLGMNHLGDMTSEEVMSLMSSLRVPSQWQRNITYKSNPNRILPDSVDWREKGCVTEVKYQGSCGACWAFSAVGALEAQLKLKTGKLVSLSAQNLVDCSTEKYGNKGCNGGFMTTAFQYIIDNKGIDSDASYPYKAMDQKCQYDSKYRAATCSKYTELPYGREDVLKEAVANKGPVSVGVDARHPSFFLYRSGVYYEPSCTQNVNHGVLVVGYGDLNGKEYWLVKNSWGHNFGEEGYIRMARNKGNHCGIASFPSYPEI
Protocol: as §1

| IC50 (Cathepsin K) | IC50 (Procathepsin L) | IC50 (Cathepsin S) | SMILES |
| --- | --- | --- | --- |
| 58 nM | 338 nM | 521 nM | CC(C)CC(C(=O)NCC#N)c1cccc(-c2ccccc2N2CCNCC2)c1 (centres undefined) [N-(cyanomethyl)-4-methyl-2-{3-[2-(piperazin-1-yl)phenyl]phenyl}pentanamide] |
| 216 nM | > 10000 nM | > 10000 nM | CC(C)CC(C(=O)NCC#N)c1cccc(-c2cccc(N3CCNCC3)c2)c1 (centres undefined) [N-(cyanomethyl)-4-methyl-2-{3-[3-(piperazin-1-yl)phenyl]phenyl}pentanamide] |
| 630 nM | > 10000 nM | > 10000 nM | CC(C)CC(C(=O)NCC#N)c1cccc(-c2cccc(N3CCOCC3)c2)c1 (centres undefined) [N-(cyanomethyl)-4-methyl-2-{3-[3-(morpholin-4-yl)phenyl]phenyl}pentanamide] |
| 150 nM | 5780 nM | 1750 nM | CC(C)CC(C(=O)NCC#N)c1cccc(-c2ccncc2)c1 (centres undefined) [N-(cyanomethyl)-4-methyl-2-[3-(pyridin-4-yl)phenyl]pentanamide] |
| 488 nM | 5580 nM | > 10000 nM | CC(C)CC(C(=O)NCC#N)c1cccc(-c2cccnc2)c1 (centres undefined) [N-(cyanomethyl)-4-methyl-2-[3-(pyridin-3-yl)phenyl]pentanamide] |
| 803 nM | 5950 nM | 8040 nM | CC(C)CC(C(=O)NCC#N)c1cccc(-c2ccccn2)c1 (centres undefined) [N-(cyanomethyl)-4-methyl-2-[3-(pyridin-2-yl)phenyl]pentanamide] |
| 2580 nM | > 10000 nM | > 10000 nM | CC(C)C[C@@H](C(=O)NCC#N)c1cccc(-c2ccc(-c3nnn[nH]3)cc2)c1 [(2R)-N-(cyanomethyl)-4-methyl-2-{3-[4-(1H-1,2,3,4-tetrazol-5-yl)phenyl]phenyl}pentanamide] |
| 614 nM | 919 nM | 3370 nM | CC(C)CC(C(=O)NCC#N)c1cccc(-c2ccccc2N2CCOCC2)c1 (centres undefined) [N-(cyanomethyl)-4-methyl-2-{3-[2-(morpholin-4-yl)phenyl]phenyl}pentanamide] |
